From ChEMBL document CHEMBL3751794, “α-Aryl pyrrolidine sulfonamides as TRPA1 antagonists” (Bioorg Med Chem Lett, 2016)

Assays:
[1] = Lipophilicity, log D of compound at pH 7.4; format: physicochemical; details: buffer
[2] = target: Transient receptor potential cation channel subfamily A member 1 (Homo sapiens, UniProt O75762); assay: Inhibition of human TRPA1
[3] = target: Transient receptor potential cation channel subfamily A member 1 (Rattus norvegicus, UniProt Q6RI86); assay: Inhibition of rat TRPA1
Sequence of Transient receptor potential cation channel subfamily A member 1 (Rattus norvegicus, UniProt Q6RI86) (Q6RI86 whole entry): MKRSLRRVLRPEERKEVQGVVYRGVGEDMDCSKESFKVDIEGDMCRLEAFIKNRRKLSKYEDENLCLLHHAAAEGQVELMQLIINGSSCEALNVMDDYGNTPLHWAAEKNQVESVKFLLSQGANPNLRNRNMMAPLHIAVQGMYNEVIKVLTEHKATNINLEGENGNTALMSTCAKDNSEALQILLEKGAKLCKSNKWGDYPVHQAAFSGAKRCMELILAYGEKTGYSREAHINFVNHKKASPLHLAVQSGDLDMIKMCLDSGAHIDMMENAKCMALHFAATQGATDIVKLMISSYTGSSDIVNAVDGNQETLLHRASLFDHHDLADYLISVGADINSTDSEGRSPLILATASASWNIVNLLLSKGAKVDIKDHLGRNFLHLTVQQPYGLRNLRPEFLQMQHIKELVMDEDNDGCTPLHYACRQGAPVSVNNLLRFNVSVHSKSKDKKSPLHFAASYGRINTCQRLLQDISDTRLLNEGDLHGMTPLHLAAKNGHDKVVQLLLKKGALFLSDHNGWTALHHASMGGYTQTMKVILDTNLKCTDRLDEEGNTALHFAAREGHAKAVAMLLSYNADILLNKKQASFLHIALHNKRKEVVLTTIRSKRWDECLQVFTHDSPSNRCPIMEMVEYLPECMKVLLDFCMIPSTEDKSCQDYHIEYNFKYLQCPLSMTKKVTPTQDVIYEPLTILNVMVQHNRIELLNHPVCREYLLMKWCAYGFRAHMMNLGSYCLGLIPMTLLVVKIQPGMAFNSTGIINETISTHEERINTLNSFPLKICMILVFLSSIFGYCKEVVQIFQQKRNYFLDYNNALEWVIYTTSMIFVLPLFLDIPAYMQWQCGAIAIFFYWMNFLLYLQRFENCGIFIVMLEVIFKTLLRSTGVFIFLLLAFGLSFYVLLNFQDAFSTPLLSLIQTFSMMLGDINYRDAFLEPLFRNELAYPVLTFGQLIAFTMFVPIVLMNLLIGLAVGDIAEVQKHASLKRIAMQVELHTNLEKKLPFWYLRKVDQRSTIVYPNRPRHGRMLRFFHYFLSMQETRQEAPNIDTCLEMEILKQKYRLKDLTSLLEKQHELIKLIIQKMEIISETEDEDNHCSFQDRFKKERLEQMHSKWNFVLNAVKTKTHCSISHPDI

[4] = Permeability across MDCK cells; format: ADME, cell-based, Canis lupus familiaris; details: dog, read-out: permeability
[5] = Plasma protein binding in human; format: ADME, cell-free; details: read-out: PPB (converted)
[6] = Kinetic solubility of compound; format: physicochemical; details: read-out: Kinetic_solubility

Sequence of Transient receptor potential cation channel subfamily A member 1 (Homo sapiens, UniProt O75762) (O75762 whole entry): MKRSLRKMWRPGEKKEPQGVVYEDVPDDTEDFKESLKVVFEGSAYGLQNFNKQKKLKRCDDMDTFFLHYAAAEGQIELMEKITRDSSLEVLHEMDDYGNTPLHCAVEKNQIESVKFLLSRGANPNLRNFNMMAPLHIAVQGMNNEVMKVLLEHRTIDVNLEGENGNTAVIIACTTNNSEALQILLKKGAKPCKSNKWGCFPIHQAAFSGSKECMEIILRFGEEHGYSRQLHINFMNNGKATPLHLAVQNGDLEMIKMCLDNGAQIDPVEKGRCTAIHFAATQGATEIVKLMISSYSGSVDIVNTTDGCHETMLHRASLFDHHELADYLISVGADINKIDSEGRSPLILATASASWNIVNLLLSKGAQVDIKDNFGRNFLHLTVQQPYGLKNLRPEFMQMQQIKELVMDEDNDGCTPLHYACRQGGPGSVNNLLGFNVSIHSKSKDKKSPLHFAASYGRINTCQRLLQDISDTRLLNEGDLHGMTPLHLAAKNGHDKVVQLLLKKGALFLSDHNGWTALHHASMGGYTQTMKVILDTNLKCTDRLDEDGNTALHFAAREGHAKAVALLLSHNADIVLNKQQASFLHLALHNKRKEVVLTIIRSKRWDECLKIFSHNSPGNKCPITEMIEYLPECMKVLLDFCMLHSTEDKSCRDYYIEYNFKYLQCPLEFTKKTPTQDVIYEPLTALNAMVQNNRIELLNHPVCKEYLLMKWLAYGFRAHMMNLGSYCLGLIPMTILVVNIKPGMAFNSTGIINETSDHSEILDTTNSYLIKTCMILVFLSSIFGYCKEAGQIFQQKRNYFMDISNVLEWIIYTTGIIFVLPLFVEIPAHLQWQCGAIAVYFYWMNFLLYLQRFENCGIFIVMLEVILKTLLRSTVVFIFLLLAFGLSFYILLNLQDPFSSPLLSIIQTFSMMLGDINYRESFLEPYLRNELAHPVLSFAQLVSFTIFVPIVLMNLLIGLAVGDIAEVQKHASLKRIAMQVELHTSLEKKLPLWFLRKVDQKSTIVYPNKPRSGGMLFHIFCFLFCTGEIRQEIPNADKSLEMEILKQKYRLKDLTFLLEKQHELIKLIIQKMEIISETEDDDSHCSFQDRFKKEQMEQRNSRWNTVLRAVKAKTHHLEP

| Compound | logD [1] | IC50 [2] | IC50 [3] | Papp [4] | fraction unbound [5] | solubility kinetic [6] |
| --- | --- | --- | --- | --- | --- | --- |
| Cc1cc(S(=O)(=O)N2[C@H](CO)CC[C@@H]2c2ccc(F)cc2)ccc1F | 2.8 | 190 nM | – | – | – | – |
| Cc1cc(CN2[C@H](CO)CC[C@@H]2c2ccc(F)cc2)cc(C)c1F | 4 | 6700 nM | – | – | – | – |
| COC[C@@H]1CC[C@H](c2ccc(F)cc2)N1S(=O)(=O)c1cc(C)c(F)c(C)c1 | 3.9 | 270 nM | – | – | – | – |
| Cc1cc(S(=O)(=O)N2C[C@H](F)C[C@@H]2c2ccc(F)cc2)cc(C)c1F | 2.6 | 380 nM | – | – | – | – |
| CNC[C@@H]1CC[C@H](c2ccc(F)cc2)N1S(=O)(=O)c1cc(C)c(F)c(C)c1 | 2.7 | > 20000 nM | – | – | – | – |
| Cc1cc(S(=O)(=O)N2[C@H](CNCC(F)(F)F)CC[C@@H]2c2ccc(F)cc2)cc(C)c1F | 4.3 | > 20000 nM | – | – | – | – |
| O=S(=O)(c1cc(Cl)c(F)c(Cl)c1)N1[C@H](CO)CC[C@@H]1c1ccc(F)cc1 | 3.8 | 110 nM | 7300 nM | 5.7 ×10⁻⁶ cm/s | 0.006 | < 1 µM |
| Cc1cc(C(=O)N2[C@H](CO)CC[C@@H]2c2ccc(F)cc2)cc(C)c1F | 3.1 | > 20000 nM | – | – | – | – |
| O=S(=O)(c1cccnc1)N1[C@H](CO)CC[C@@H]1c1ccc(F)cc1 | 1.1 | > 20000 nM | – | – | – | – |
| Cc1cc(S(=O)(=O)N2[C@H](CO)CC[C@@H]2c2ccc(F)cc2)cc(C)c1F | 3.3 | 63 nM | – | – | – | – |
| Cc1cc(S(=O)(=O)N2CC(F)(F)C[C@@H]2c2ccc(F)cc2)cc(C)c1F | 4.2 | 23 nM | – | – | – | – |
| Cc1cc(S(=O)(=O)N2CCC[C@@H]2c2ccc(F)cc2)cc(C)c1F | 4.4 | 110 nM | – | – | – | – |
| O=S(=O)(c1cc(Cl)c(F)c(Cl)c1)N1CCC[C@@H]1c1ccc(F)cc1 | 4.6 | 350 nM | – | – | – | – |
| Cc1cc(S(=O)(=O)N2[C@H](CO)CC[C@@H]2c2ccc(F)cc2)cc(Cl)c1F | 3.6 | 130 nM | – | – | – | – |
| O=S(=O)(c1ccc(F)cn1)N1[C@H](CO)CC[C@@H]1c1ccc(F)cc1 | 2 | > 20000 nM | – | – | – | – |
| Cc1cc(C)cc(S(=O)(=O)N2[C@H](CO)CC[C@@H]2c2ccc(F)cc2)c1 | 3.2 | 290 nM | – | – | – | – |
| Cc1cc(S(=O)(=O)N2CC[C@@H](F)[C@@H]2c2ccc(F)cc2)cc(C)c1F | 3.9 | 20 nM | – | – | – | – |
| Cc1cc(S(=O)(=O)N2[C@H](CN(C)C)CC[C@@H]2c2ccc(F)cc2)cc(C)c1F | 3.7 | > 18000 nM | – | – | – | – |
| O=S(=O)(c1ccccc1)N1[C@H](CO)CC[C@@H]1c1ccc(F)cc1 | 2.2 | > 19000 nM | – | – | – | – |
| O=S(=O)(c1ccc(F)cc1)N1CCC[C@@H]1c1ccc(F)cc1 | 3.2 | 6600 nM | – | – | – | – |
